Read-outs that look alike come from different tables or passages of the source.
How the values were obtained:
[1] = molecular target: human serum albumin (HSA) (Homo sapiens, UniProt P02768); conditions: for k HSA: Table S5, retention factor, HSA column, pH 7.4, 25 degrees Celsius
Procedure: (§1) High performance liquid chromatography was performed using immobilized human serum albumin column (HPLCHSA) and immobilized artificial membrane (HPLCIAM). HPLC was the source of the log k values (logarithm of retention factor), log kHSA and log kIAM.
High performance liquid chromatography was performed using a chromatography column with immobilized human serum albumin. The assay was performed on a Perkin Elmer Series 200 instrument connected to a UV-VIS spectrometer as detector. The analytical wavelength was the same for all compounds at 210 nm. […] The acetate buffer was prepared by dissolving 0.77 g of ammonium acetate in 1 L of distilled water. The pH was then adjusted with a concentrated ammonia solution using a pH meter.
The phase flow through the system was set to 0.9 mL/min as recommended by the column manufacturer. The solutions were delivered to the column using an autosampler syringe, the injection size was 10 µL. Since the column could not be thermostated, the room was kept at a constant temperature of 25 degrees Celsius.
Chromatographic data (retention coefficient, k, and derivative, log k) were obtained with TotalChrom software connected to an HPLC instrument. […] The experiment was then repeated and the collected retention rates were the mean values of both series.

[2] = molecular target: T1, bovine serum albumin (BSA) (Bos taurus, UniProt P02769); test: RP TLC on plates impregnated with bovine serum albumin; format: binding; conditions: for RP (Rf value from the RP plate impregnated with 2 mg/mL BSA solution): Table S8, external group; for RP (Rf, BSA-impregnated RP plate): Table S4, RP plate impregnated with 2 mg/mL BSA, pH 7.4 mobile phase
T1 construct: purchased Sigma Aldrich
T1 sequence (P02769 25-607): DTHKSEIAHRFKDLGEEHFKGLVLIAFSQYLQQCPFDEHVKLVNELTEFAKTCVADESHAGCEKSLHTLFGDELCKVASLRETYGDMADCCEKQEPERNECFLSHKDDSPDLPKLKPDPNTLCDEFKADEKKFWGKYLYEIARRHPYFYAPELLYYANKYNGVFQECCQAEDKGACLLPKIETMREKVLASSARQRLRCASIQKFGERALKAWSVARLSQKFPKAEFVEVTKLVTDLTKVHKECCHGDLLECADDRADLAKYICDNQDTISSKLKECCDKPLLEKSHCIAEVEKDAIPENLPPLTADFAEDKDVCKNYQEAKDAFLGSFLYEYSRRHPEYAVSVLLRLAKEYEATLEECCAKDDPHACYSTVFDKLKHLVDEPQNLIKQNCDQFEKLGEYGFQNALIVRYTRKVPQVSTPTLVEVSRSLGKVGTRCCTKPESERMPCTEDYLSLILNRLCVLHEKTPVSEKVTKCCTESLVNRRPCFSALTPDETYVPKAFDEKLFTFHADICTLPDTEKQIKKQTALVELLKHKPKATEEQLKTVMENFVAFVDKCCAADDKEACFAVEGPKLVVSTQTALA

plasma protein = conditions: ref DrugBank [7], cited from earlier work
[3] = RP TLC on non-impregnated control plates; format: physicochemical; conditions: for CRP (Rf value from the non-impregnated RP plate, control): Table S8, external group; for CRP (Rf, control RP plate): Table S4, non-impregnated RP plate, acetonitrile/acetate buffer pH 7.4/methanol 60:20:20
[4] = molecular target: T1, bovine serum albumin (BSA); test: NP TLC on plates impregnated with bovine serum albumin; format: binding; conditions: for NP (Rf, BSA-impregnated NP plate): Table S3, NP plate impregnated with 2 mg/mL BSA, pH 7.4 mobile phase; for NP (Rf value from the NP plate impregnated with 2 mg/mL BSA solution): Table S8, external group
[5] = HPLC on immobilized artificial membrane column (HPLCIAM); format: physicochemical; conditions: for log k IAM: Table S5, IAM column, pH 7.4; for k IAM: Table S5, retention factor, IAM column, phosphate buffer pH 7.4/acetonitrile 80:20; for kIAM / log kIAM: Table S9, external group
Procedure: as §1
The second experiment was performed using an immobilized artificial membrane (IAM) column. The assay was also performed on a Perkin Elmer Series 200 instrument connected to a UV-VIS spectrometer as the detector. The analytical wavelength was the same for all compounds, at 210 nm. […] The mobile phase was a mixture of 10 mM phosphate buffer pH 7.4 and acetonitrile in the ratio 80:20 (v/v). The phosphate buffer was obtained by dissolving the finished tablet in the appropriate amount of distilled water (1 tablet per 200 mL). In this case, it was not necessary to adjust the pH of the buffer using a pH meter.
The phase flow through the system was set to 0.5 mL/min as recommended by the column manufacturer. The solutions were delivered to the column using an autosampler syringe, the injection size was 10 µL.
The experiment was then repeated and the collected retention rates were the mean values of both series.

[6] = NP TLC on non-impregnated control plates; format: physicochemical; conditions: for CNP (Rf, control NP plate): Table S3, non-impregnated NP plate, acetonitrile/acetate buffer pH 7.4/methanol 60:20:20; for CNP (Rf value from the non-impregnated NP plate, control): Table S8, external group
Procedure: For TLC chromatography, glass plates 20 × 20 cm from Merck, covered with silica gel with the addition of a fluorescent indicator, were used. Normal phase (NP) plates were used with standard Merck TLC Silica gel 60 F254 plates, while in reverse phase (RP) silanized plates RP-2: Merck TLC Silica gel 60 RP-2 F254 were used.
Normal and reversed phase thin layer chromatography (NP TLC and RP TLC respectively) was performed using silica-gel-coated glass plates. Half of them were covered with 2 mg/mL bovine serum albumin solution and half remained pure.
The mobility of the compounds was also determined on the plates with no protein as a modifier. […] The acetate buffer (20 mM) was prepared by dissolving 1.54 g of ammonium acetate in 1 L of distilled water. The pH was then adjusted with a concentrated ammonia solution using a pH meter. The plates were developed in standard, vertical chromatographic chambers, each time using 100 mL of the mobile phase, after the chamber was previously saturated with solvent vapors for approximately 1 h.
The unfolded-protein-impregnated plates and the control plates were scanned with a Desaga CD 60 densitometer. The values of the delay factor (Rf) were collected, i.e., the ratio of the distance traveled by the substance to be analyzed to the distance traveled through the front of the mobile phase. […] The experiment was repeated (for both BSA-coated and control plates) and the Rf values pooled are the mean of both series of experiments.

[7] = Table S1, coded 1/0; ref DrugBank [7]; cited from earlier work
[8] = Table S6, external group (n = 38), given as fraction
[9] = human, immobilized hsa column, pH 7.4
[10] = Table S1, plasma protein binding given as fraction

Chain of human serum albumin (HSA) (P02768 25-609): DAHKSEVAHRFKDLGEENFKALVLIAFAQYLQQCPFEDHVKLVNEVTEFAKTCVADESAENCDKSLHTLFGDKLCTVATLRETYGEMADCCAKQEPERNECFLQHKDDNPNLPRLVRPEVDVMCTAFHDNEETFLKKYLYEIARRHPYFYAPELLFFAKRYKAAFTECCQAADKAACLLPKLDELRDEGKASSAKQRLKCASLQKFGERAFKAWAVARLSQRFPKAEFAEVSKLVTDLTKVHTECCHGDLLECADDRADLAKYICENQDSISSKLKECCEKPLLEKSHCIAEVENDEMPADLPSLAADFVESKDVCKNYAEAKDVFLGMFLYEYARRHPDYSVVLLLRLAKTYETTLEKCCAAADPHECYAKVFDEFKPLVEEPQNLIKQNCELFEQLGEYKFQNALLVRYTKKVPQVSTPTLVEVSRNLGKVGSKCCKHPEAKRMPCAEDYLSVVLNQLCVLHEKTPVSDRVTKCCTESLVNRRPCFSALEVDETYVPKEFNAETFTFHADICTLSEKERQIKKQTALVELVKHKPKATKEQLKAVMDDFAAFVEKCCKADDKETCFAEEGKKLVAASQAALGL

SMILES | k HSA [1] | RP (Rf, BSA-impregnated RP plate) [2] | NP (Rf, BSA-impregnated NP plate) [4] | PB (plasma protein; [10]) | CRP (Rf, control RP plate) [3] | log k IAM [5] | k IAM [5] | CNP (Rf, control NP plate) [6] | log k HSA ([1]; Table S5, HSA, pH 7.4) | further results
CC(=O)Nc1nnc(S(N)(=O)=O)s1 [acetazolamid] | – | – | – | – | – | – | – | – | – | kHSA [1]: 0.74; log kHSA [1]: -0.13; RP (Rf value from the RP plate impregnated with 2 mg/mL BSA solution) [2]: 0.96; PB (plasma protein; [8]): 0.98; CRP (Rf value from the non-impregnated RP plate, control) [3]: 0.97
COc1ccc(CCN2CCC(Nc3nc4ccccc4n3Cc3ccc(F)cc3)CC2)cc1 [astemizol] | 13.32 | 0.62 | 0.61 | 0.967 | 0.65 | 1.42 | 26.27 | 0.62 | – | log k HSA [1, 9]: 1.12
OC(CCN1CCCCC1)(c1ccccc1)C1CC2C=CC1C2 (centres unmarked) [biperiden] | 0.58 | 0.85 | 0.65 | 0.6 | 0.87 | 1.62 | 41.47 | 0.68 | – | log k HSA [1, 9]: -0.24
CCCCCOC(=O)Nc1nc(=O)n([C@@H]2O[C@H](C)[C@@H](O)[C@H]2O)cc1F [capecitabine] | – | 0.89 | 0.92 | 0.6 | 0.90 | 0.04 | 1.11 | 0.92 | – | –
C=CCN1C[C@H](C(=O)N(CCCN(C)C)C(=O)NCC)C[C@@H]2c3cccc4[nH]cc(c34)C[C@H]21 [carbegoline] | 3.23 | 0.68 | 0.68 | 0.41 | 0.68 | 1.23 | 17.05 | 0.68 | 0.51 | –
O=C(N[C@H](CO)[C@H](O)c1ccc([N+](=O)[O-])cc1)C(Cl)Cl [chloramphenikol] | 0.61 | 0.89 | 0.97 | – | 0.89 | 0.03 | 1.08 | 0.99 | -0.21 | –
NS(=O)(=O)c1cc(C2(O)NC(=O)c3ccccc32)ccc1Cl (centres unmarked) [chlortalidone] | 0.85 | – | 0.96 | 0.75 | – | 0.12 | 1.32 | 0.96 | – | –
CN(C)CCOC(c1ccccc1)c1ccccc1 [diphenhydramin] | 1.88 | 0.54 | 0.33 | 0.985 | 0.58 | 0.56 | 3.66 | 0.42 | 0.27 | –
CCOc1ccc(/C=C2\NCCc3cc(OCC)c(OCC)cc32)cc1OCC [drotaverine] | 1.91 | 0.58 | 0.59 | – | 0.55 | 1.49 | 31.24 | 0.61 | – | log k HSA [1, 9]: 0.28; CNS+/- [7]: 1
C[C@]12CC[C@@H]3c4ccc(OC(=O)c5ccccc5)cc4CC[C@H]3[C@@H]1CC[C@@H]2O [estradiol benzoate] | – | 0.62 | 0.98 | 0.95 | 0.63 | 0.84 | 6.92 | 0.97 | – | –
C[C@]12CC[C@@H]3c4ccc(O)cc4CC[C@H]3[C@@H]1CCC2=O [estrone] | – | – | 0.99 | 0.95 | 0.79 | 1.47 | 29.40 | 0.99 | – | –
O=C(CCCN1CCC(O)(c2ccc(Cl)cc2)CC1)c1ccc(F)cc1 [haloperidol] | 4.8 | 0.64 | 0.65 | 0.92 | 0.61 | 1.38 | 23.74 | 0.66 | 0.68 | –
CCC1(c2ccccc2)C(=O)NCNC1=O [primidone] | – | – | – | – | – | – | – | – | – | kHSA ([1]; Table S9, external group): 0.22; log kHSA ([1]; Table S9, external group): -0.66; RP (Rf value from the RP plate impregnated with 2 mg/mL BSA solution) [2]: 0.97; NP (Rf value from the NP plate impregnated with 2 mg/mL BSA solution) [4]: 0.93; CRP (Rf value from the non-impregnated RP plate, control) [3]: 0.93; kIAM [5]: 2.02; log kIAM [5]: 0.31; CNP (Rf value from the non-impregnated NP plate, control) [6]: 0.90
CC(=O)[C@H]1CC[C@H]2[C@@H]3CCC4=CC(=O)CC[C@]4(C)[C@H]3CC[C@]12C [progesterone] | 5.7 | 0.68 | 0.96 | 0.975 | 0.71 | 1.54 | 34.99 | 0.96 | 0.76 | –
CO[C@H]1/C=C/O[C@@]2(C)Oc3c(C)c(O)c4c(O)c(c(/C=N/N5CCN(C)CC5)c(O)c4c3C2=O)NC(=O)/C(C)=C\C=C\[C@H](C)[C@H](O)[C@@H](C)[C@@H](O)[C@@H](C)[C@H](OC(C)=O)[C@@H]1C [rifampicin] | – | – | – | – | – | – | – | – | – | kHSA ([1]; Table S9, external group): 0.03; log kHSA [1, 9]: -1.53; RP (Rf value from the RP plate impregnated with 2 mg/mL BSA solution) [2]: 0.94; NP (Rf value from the NP plate impregnated with 2 mg/mL BSA solution) [4]: 0.77; PB (plasma protein; [8]): 0.89; CRP (Rf value from the non-impregnated RP plate, control) [3]: 0.95; kIAM [5]: 8.37; log kIAM [5]: 0.92; CNP (Rf value from the non-impregnated NP plate, control) [6]: 0.73
CC[C@H]1OC(=O)[C@H](C)[C@@H](O[C@H]2C[C@@](C)(OC)[C@@H](O)[C@H](C)O2)[C@H](C)[C@@H](O[C@@H]2O[C@H](C)C[C@H](N(C)C)[C@H]2O)[C@](C)(O)C[C@@H](C)/C(=N\OCOCCOC)[C@H](C)[C@@H](O)[C@]1(C)O [roxitromicin] | 1.03 | 0.79 | 0.92 | 0.96 | 0.80 | – | – | 0.91 | 0.01 | –
CC(C)(C)NC[C@H](O)COc1nsnc1N1CCOCC1 [timolol] | – | – | – | – | – | – | – | – | – | kHSA ([1]; Table S9, external group): 0.13; RP (Rf value from the RP plate impregnated with 2 mg/mL BSA solution) [2]: 0.97; NP (Rf value from the NP plate impregnated with 2 mg/mL BSA solution) [4]: 0.32; PB (plasma protein; [8]): 0.10; CRP (Rf value from the non-impregnated RP plate, control) [3]: 0.97; kIAM [5]: 2.88; log kIAM [5]: 0.46; CNP (Rf value from the non-impregnated NP plate, control) [6]: 0.34
CN(C)CCc1c[nH]c2ccc(C[C@H]3COC(=O)N3)cc12 [zolmitriptane] | 1.7 | 0.86 | 0.29 | 0.25 | 0.86 | 0.52 | 3.30 | 0.31 | 0.23 | –
